In patent US20260365653A1, “IRREVERSIBLE MUTEGFR INHIBITORS” (Bayer Aktiengesellschaft, priority 2022, published 2026):
Where “and” joins values, the source holds several entries; their conditions need not be identical. Identical values can stand only once.

Tests used:
BA/F3 (insSVD) cells = test: Ba/F3-EGFR-insSVD cell survival assay (Cell Titer-Glo); format: cell-based
How it was run: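 CellTiter-Glo luminescence read after 48 h compound exposure at 37° C. Cells: IL-3-independent Ba/F3 lines transduced with EGFR-insSVD or EGFR-insSVD T790M, maintained on 10 ng/ml EGF and seeded at 4000 per well.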

[1] = target: T1, mutEGFR (D770_N771insNPG, T790) (Homo sapiens, UniProt P00533, INS770NPG/T790M); test: mutEGFR (D770_N771insNPG, T790) kinase assay; format: biochemical
T1 construct: exact insNPG construct not described; in-house EGFR proteins were N-terminal GST fusions from baculovirus/insect cells (borders R669-A1210 given only for WT, insSVD, insASV)
Excerpt: The different EGFR proteins used in the biochemical kinase activity inhibition assays were generated inhouse by expression in insect cells using Baculo Virus system and subsequent purification as described in the following paragraphs.
The cDNAs encoding the various protein sequences from human EGFR human (P00533) were optimized for expression in eukaryotic cells and synthesized by the GeneArt Technology at Life Technologies.

[2] = target: T2, mutEGFR (D770_N771insSVD) (Homo sapiens, UniProt P00533, DUP768-770); test: Exon20-Mutant-EGFR (D770_N771insSVD) kinase assay (TR-FRET); format: biochemical
T2 construct: GST-EGFR #3 (SVD between D770 and N771); made in house; host or cells: Sf9 insect cells (baculovirus)

[3] = Mus musculus, BaF3, 48 h, Table 3a, cell survival, Cell Titer-Glo, with 10 ng/ml EGF, without IL-3
[4] = mutEGFR (D770_N771insSVD) kinase assay IC50, Table 2a, D770_N771insSVD, 2 mM ATP
[5] = Table 3a, cell survival, Cell Titer-Glo, with 10 ng/ml EGF, without IL-3, 48 h
[6] = Mus musculus, BaF3, 48 h, Table 3b, Ba/F3 EGFR-insSVD
[7] = Table 2b (from US Priority Patent Application), mutEGFR D770_N771insNPG
[8] = mutEGFR (D770_N771insSVD) kinase assay IC50, Table 2b (from US Priority Patent Application), mutEGFR D770_N771insSVD

T2 sequence (P00533 with tags, fused parts or gaps DUP768-770): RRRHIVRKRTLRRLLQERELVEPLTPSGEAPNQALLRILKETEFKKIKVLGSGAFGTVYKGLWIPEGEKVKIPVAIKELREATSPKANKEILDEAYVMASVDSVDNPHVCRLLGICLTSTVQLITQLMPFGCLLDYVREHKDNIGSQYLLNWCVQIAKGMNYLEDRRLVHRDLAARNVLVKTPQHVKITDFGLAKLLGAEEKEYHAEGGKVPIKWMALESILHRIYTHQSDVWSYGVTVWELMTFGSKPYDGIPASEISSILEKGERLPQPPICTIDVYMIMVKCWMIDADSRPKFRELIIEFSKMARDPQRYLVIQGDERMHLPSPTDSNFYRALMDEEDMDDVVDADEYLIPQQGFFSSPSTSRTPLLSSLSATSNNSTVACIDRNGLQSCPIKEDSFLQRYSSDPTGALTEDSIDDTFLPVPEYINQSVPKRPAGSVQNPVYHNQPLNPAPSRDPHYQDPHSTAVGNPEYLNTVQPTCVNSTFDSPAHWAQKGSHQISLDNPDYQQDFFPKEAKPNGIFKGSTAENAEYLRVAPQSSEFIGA
T1 sequence (P00533 with tags, fused parts or gaps INS770NPG/T790M limits assumed): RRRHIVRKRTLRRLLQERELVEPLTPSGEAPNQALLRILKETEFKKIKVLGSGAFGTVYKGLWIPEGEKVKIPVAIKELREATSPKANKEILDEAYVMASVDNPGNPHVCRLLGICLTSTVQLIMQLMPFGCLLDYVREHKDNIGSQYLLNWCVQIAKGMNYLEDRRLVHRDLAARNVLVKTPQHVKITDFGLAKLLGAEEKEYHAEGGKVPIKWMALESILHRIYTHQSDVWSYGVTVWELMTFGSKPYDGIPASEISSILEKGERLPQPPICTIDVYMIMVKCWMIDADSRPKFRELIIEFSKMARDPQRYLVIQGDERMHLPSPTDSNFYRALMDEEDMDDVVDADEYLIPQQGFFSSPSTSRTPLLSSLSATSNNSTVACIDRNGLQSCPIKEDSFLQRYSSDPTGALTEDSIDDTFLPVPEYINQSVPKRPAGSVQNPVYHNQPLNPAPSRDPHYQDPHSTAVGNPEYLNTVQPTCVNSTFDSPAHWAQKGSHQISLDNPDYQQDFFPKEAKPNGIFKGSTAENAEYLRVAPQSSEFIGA

SMILES	IC50 (BA/F3 (insSVD) cells; [3]) [nM]	IC50 ([1]; Table 2a, D770_N771insNPG) [nM]	IC50 [2, 4]	IC50 (BA/F3 (insSVD) cells; [5]) [nM]	IC50 (BA/F3 (insSVD) cells; [6]) [nM]	IC50 [1, 7] [nM]	IC50 [2, 8]
C=CC(=O)N1CCn2nc(-c3ccc(C(F)(F)F)cc3)c(-c3ccnc4[nH]ccc34)c2C1C (single isomer, unassigned; isomer 2) [Example 247, 1-(4-methyl-3-(1H-pyrrolo[2,3-b]pyridin-4-yl)-2-(4-(trifluoromethyl)phenyl)-6,7-dihydropyrazolo[1,5-a]pyrazin-5(4H)-yl) prop-2-en-1-one (isomer 2)]	134	933	6.99 nM				
C=CC(=O)N1CCn2nc(-c3ccc(F)cc3)c(-c3ccnc4[nH]cc(C)c34)c2C1C (single isomer, unassigned; isomer 2) [Example 250, 1-(2-(4-fluorophenyl)-4-methyl-3-(3-methyl-1H-pyrrolo[2,3-b]pyridin-4-yl)-6,7-dihydropyrazolo[1,5-a]pyrazin-5(4H)-yl) prop-2-en-1-one (isomer 2)]		216	435 nM	75.1			
CC1c2c(-c3ccnc4[nH]ccc34)c(-c3ccc(C(F)(F)F)cc3)nn2CCN1C(=O)/C=C/CN(C)C (single isomer, unassigned; isomer 2) [Example 252, 4-(dimethylamino)-1-[4-methyl-3-(1H-pyrrolo[2,3-b]pyridin-4-yl)-2-[4-(trifluoromethyl)phenyl]-6,7-dihydropyrazolo[1,5-a]pyrazin-5(4H)-yl]but-2-en-1-one (isomer 2)]	180	2840	11.7 nM				
Cc1c[nH]c2nccc(-c3c(-c4ccc(C(F)(F)F)cc4)nn4c3C(C)N(C(=O)/C=C/CN(C)C)CC4)c12 (single isomer, unassigned; isomer 2) [Example 253, 4-(dimethylamino)-1-(4-methyl-3-(3-methyl-1H-pyrrolo[2,3-b]pyridin-4-yl)-2-(4-(trifluoromethyl)phenyl)-6,7-dihydropyrazolo[1,5-a]pyrazin-5(4H)-yl) but-2-en-1-one (isomer 2)]		3950	247 nM	490			
Cc1c[nH]c2nccc(-c3c(-c4ccc(F)cc4)nn4c3C(C)N(C(=O)/C=C/CN(C)C)CC4)c12 (single isomer, unassigned; isomer 2) [Example 256, (E)-4-(dimethylamino)-1-(2-(4-fluorophenyl)-4-methyl-3-(3-methyl-1H-pyrrolo[2,3-b]pyridin-4-yl)-6,7-dihydropyrazolo[1,5-a]pyrazin-5(4H)-yl) but-2-en-1-one (isomer 2)]	158	> 1630	7490 nM				
C=CC(=O)N1CCn2nc(-c3ccc(F)cc3)c(-c3ccnc4[nH]ccc34)c2C1C (single isomer, unassigned; isomer 2) [Example 261, 1-(2-(4-fluorophenyl)-4-methyl-3-(1H-pyrrolo[2,3-b]pyridin-4-yl)-6,7-dihydropyrazolo[1,5-a]pyrazin-5(4H)-yl) prop-2-en-1-one (isomer 2)]		7.3	6.5 nM	111			
CC1c2c(-c3ccnc4[nH]ccc34)c(-c3ccc(F)cc3)nn2CCN1C(=O)/C=C/CN(C)C (single isomer, unassigned; isomer 2) [Example 267, (E)-4-(dimethylamino)-1-(2-(4-fluorophenyl)-4-methyl-3-(1H-pyrrolo[2,3-b]pyridin-4-yl)-6,7-dihydropyrazolo[1,5-a]pyrazin-5(4H)-yl) but-2-en-1-one (isomer 2)]		21.7	24.9 nM	257			
C=CC(=O)N1Cc2c(-c3ccncc3)c(-c3ccc(OC)cc3)nn2C(C)C1 (single isomer, unassigned; isomer 2) [Example 275, 1-[2-(4-methoxyphenyl)-7-methyl-3-(pyridin-4-yl)-6,7-dihydropyrazolo[1,5-a]pyrazin-5(4H)-yl]prop-2-en-1-one (isomer 2)]		1.22	0.476 nM	16.8			
C=CC(=O)N1CCn2nc(-c3ccc(Cl)cc3F)c(-c3ccncc3)c2C1C (single isomer, unassigned; isomer 2) [Example 279, 1-[2-(4-chloro-2-fluorophenyl)-4-methyl-3-(pyridin-4-yl)-6,7-dihydropyrazolo[1,5-a]pyrazin-5(4H)-yl]prop-2-en-1-one (isomer 2)]		62.2	50.6 nM	429			
CC1c2c(-c3ccncc3)c(-c3ccc(Cl)cc3F)nn2CCN1C(=O)/C=C/CN(C)C (single isomer, unassigned; isomer 2) [Example 286, (2E)-1-[2-(4-chloro-2-fluorophenyl)-4-methyl-3-(pyridin-4-yl)-6,7-dihydropyrazolo[1,5-a]pyrazin-5(4H)-yl]-4-(dimethylamino)but-2-en-1-one (isomer 2)]		95.7	71 nM	843			
C=CC(=O)N1CCn2nc(-c3ccc(Cl)c(C)c3)c(-c3ccncc3)c2C1 [Example 2, 1-[2-(4-chloro-3-methylphenyl)-3-(pyridin-4-yl)-6,7-dihydropyrazolo[1,5-a]pyrazin-5(4H)-yl]prop-2-en-1-one]	20.6	0.146	0.105 nM and < 0.0725 nM		20.6	0.146	< 0.0725 nM and 0.105 nM
C=CC(=O)N1CCn2nc(-c3cccc(F)c3)c(-c3ccncc3)c2C1 [Example 4, 1-[2-(3-fluorophenyl)-3-(pyridin-4-yl)-6,7-dihydropyrazolo[1,5-a]pyrazin-5(4H)-yl]prop-2-en-1-one]	50.5	1.47	1.45 nM		50.5	1.47	1.45 nM
CN(C)C/C=C/C(=O)N1CCn2nc(-c3ccc(F)cc3)c(-c3ccnc(NC(=O)C4CC4)c3)c2C1 [Example 8, N-(4-{5-[(2E)-4-(dimethylamino)but-2-enoyl]-2-(4-fluorophenyl)-4,5,6,7-tetrahydropyrazolo[1,5-a]pyrazin-3-yl}pyridin-2-yl)cyclopropanecarboxamide]	20.4	0.765	0.393 nM		20.4	0.765	0.393 nM
O=C(Nc1cc(-c2c(-c3ccc(F)cc3)nn3c2CN(C(=O)C2CO2)CC3)ccn1)C1CC1 (stereo not drawn) [Example 9, N-{4-[2-(4-fluorophenyl)-5-(oxirane-2-carbonyl)-4,5,6,7-tetrahydropyrazolo[1,5-a]pyrazin-3-yl]pyridin-2-yl}cyclopropanecarboxamide]	2040	104	64.5 nM		2040	104	64.5 nM
C=CC(=O)N1CCn2nc(-c3ccc(F)cc3)c(-c3ccnc(OC)c3)c2C1 [Example 11, 1-[2-(4-fluorophenyl)-3-(2-methoxypyridin-4-yl)-6,7-dihydropyrazolo[1,5-a]pyrazin-5(4H)-yl]prop-2-en-1-one]	1560	43.8	29.6 nM		1560	43.8	29.6 nM
C=CC(=O)N1CCn2nc(-c3ccc(F)cc3)c(-c3ccncc3OC)c2C1 [Example 12, 1-[2-(4-fluorophenyl)-3-(3-methoxypyridin-4-yl)-6,7-dihydropyrazolo[1,5-a]pyrazin-5(4H)-yl]prop-2-en-1-one]	359	84.2	37.1 nM		359	84.2	37.1 nM
C#CC(=O)N1CCn2nc(-c3ccc(F)cc3)c(-c3ccncc3)c2C1 [Example 13, 1-[2-(4-fluorophenyl)-3-(pyridin-4-yl)-6,7-dihydropyrazolo[1,5-a]pyrazin-5(4H)-yl]prop-2-yn-1-one]	909	1.26	0.807 nM		909	1.26	0.807 nM
CN(C)C/C=C/C(=O)N1CCn2nc(-c3ccc(F)cc3)c(-c3ccncc3)c2C1 [Example 15, (2E)-4-(dimethylamino)-1-[2-(4-fluorophenyl)-3-(pyridin-4-yl)-6,7-dihydropyrazolo[1,5-a]pyrazin-5(4H)-yl]but-2-en-1-one]	86.9	1.08	0.729 nM		86.9	1.08	0.729 nM
CC#CC(=O)N1CCn2nc(-c3ccc(F)cc3)c(-c3ccncc3)c2C1 [Example 16, 1-[2-(4-fluorophenyl)-3-(pyridin-4-yl)-6,7-dihydropyrazolo[1,5-a]pyrazin-5(4H)-yl]but-2-yn-1-one]	774	76.6	55.2 nM		774	76.6	55.2 nM
C=C(F)C(=O)N1CCn2nc(-c3ccc(F)cc3)c(-c3ccncc3)c2C1 [Example 17, 2-fluoro-1-[2-(4-fluorophenyl)-3-(pyridin-4-yl)-6,7-dihydropyrazolo[1,5-a]pyrazin-5(4H)-yl]prop-2-en-1-one]	1150	85.8	55.7 nM		1150	85.8	55.7 nM
